Test results taken from patent US10774039B2, “Cyclopropene amino acids and methods” (United Kingdom Research and Innovation, priority 2014, dated 2020).

Tests used:
[1] = tested on: PylRS/tRNACUA pair; assay: Site-specific incorporation into sfGFP150TAG expressed in E. coli; type: cell-based, Methanosarcina barkeri
Protocol: FIG. 2A: The PylRS/RNACUA pair directs efficient, site-specific incorporation of 3 into sfGFP bearing an amber stop codon at position 150.
Expression and purification of sfGFP-3 from E. coli Electrocompetent E. coli DH10B cells were co-transformed with pBK-MbPylRS and psfGFP150TAG PyIT^14, 26. Transformed cells were recovered in S.O.B. (1 mL, supplemented with 0.2% glucose) for 1 h at 37° C. and used to inoculate LB containing 50 μg/mL kanamycin and 25 μg/mL tetracycline (LB-KT). The cells were incubated with shaking overnight at 37° C., 250 r.p.m. 1 mL of overnight culture was used to inoculate 100 mL of LB-KT½, the day culture was then incubated (37° C., 250 r.p.m). At O.D.600˜0.3, the culture was divided equally and supplemented with either 3 (1 mM) or H2O (500 μL) and incubated further (37° C., 250 r.p.m). At O.D.600˜0.6 protein expression was induced by the addition of arabinose (0.2%), after 4 h, the cells were harvested by centrifugation (4000 r.p.m, 20 min) and the pellet frozen until further use.
The frozen bacterial pellet was thawed on ice and resuspended in 2.5 mL lysis buffer (Bugbuster®, Novagen®, 50 μg/mL DNAse 1, Roche inhibitor cocktail and 20 mM imidazole). Cells were incubated (4° C., 30 minutes) then clarified by centrifugation (16000 g, 4° C., 30 minutes). The clarified lysates were transferred to fresh tubes and 100 μL Ni-NTA slurry added. The mixtures was incubated with agitation (4° C., 1 h) and then collected by centrifugation (1000 g, 4° C., 5 min). The beads were resuspended three times in 500 μL wash buffer (10 mM Tris-HCL, 40 mM imidazole, 200 mM NaCl, pH 8) and collected by centrifugation (1000 g, 4° C., 5 min). Finally, the beads were resuspended in 100 μL, elution buffer (10 mM Tris-HCL, 300 mM imidazole, 200 mM NaCl, pH 8), pelleted by centrifugation (1000 g, 4° C., 5 min) and the supernatant collected into fresh tubes. The elution was repeated three times with 100 μL of elution buffer. The purified proteins were analysed by 4-12% SDS-PAGE and LC-MS.

[2] = molecular target: PylRS/tRNACUA pair (Methanosarcina mazei, UniProt Q8PWY1); assay: Dual luciferase reporter assay on ovary extract of flies fed amino acid; type: in vivo, D. melanogaster; set-up: expressed in transfected cells; host or cells: transgenic Drosophila melanogaster, ovaries (UAS-PylRS driven by nos-vp16-GAL4); settings: flies fed 10 mM amino acid
PylRS/tRNACUA pair (Methanosarcina mazei, UniProt Q8PWY1), sequence (Q8PWY1 whole entry, the tested form may be a part): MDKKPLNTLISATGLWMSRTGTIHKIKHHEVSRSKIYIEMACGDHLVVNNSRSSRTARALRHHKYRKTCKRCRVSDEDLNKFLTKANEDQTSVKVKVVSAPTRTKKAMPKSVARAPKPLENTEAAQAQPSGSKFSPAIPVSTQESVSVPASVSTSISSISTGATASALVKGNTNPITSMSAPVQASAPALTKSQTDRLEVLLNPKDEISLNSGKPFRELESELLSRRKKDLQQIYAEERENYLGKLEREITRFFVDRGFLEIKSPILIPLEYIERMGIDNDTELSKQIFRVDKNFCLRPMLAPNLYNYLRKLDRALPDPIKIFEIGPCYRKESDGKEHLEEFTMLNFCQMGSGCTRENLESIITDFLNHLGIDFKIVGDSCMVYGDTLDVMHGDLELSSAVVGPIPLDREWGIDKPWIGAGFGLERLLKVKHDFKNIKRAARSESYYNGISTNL
Protocol: Dual luciferase assay on ovary extract from 10 female flies expressing Triple-Rep-L in the presence or absence of 10 mM 1 or 10 mM 3. […] The error bars represent the standard deviation of 3 technical replicates from a single biological replicate. FIG. 10B: Site-specific incorporation of 3 (or 1) into GFP_TAG_mCherry-HA in flies expressing PylRS/PyltRNACUA. The full-length protein resulting from unnatural amino acid incorporation is detected by anti-HA western blot. FIG. 10C: Specific labelling of encoded 3 with tetrazine probes. Flies were fed with no amino acid, amino acid 1 (500 flies) or amino acid 3 (100 flies). […] The full-length protein containing the unnatural amino acid was immunoprecipitated from lysed ovaries with anti-GFP beads. The beads were labelled (4g, 4 μM, 200 μL, PBS, RT, 2 h) washed.
Transgenic lines were created by P element insertion using a Drosophila embryo injection service (BestGene Inc.). Lines were generated using the following plasmids: pFT58 (Ala), pFT60 (Ser), pFT62 (Leu) and pFT63 (Met). nos-Gal4-VP16 (Bloomington 4937) and MS1096-Gal4 (Bloomington 8860) were used as Gal4 drivers. All flies were grown at 25° C. on standard Iberian medium. Flies were fed unnatural amino acids by mixing dried yeast with the appropriate concentration of amino acid (usually 10 mM) diluted in dH2O to make a paste. Ovaries were prepared from females that were grown on Iberian fly food supplemented with a yeast paste with or without the amino acid for a minimum of 48 hours. For proteome labelling experiments transgenic male flies of constructs FT58, FT60, FT62 and FT63 were crossed with nos-vp16-GAL4 virgins to generate FT58/nos-vp16-GAL4, FT60/nos-vp16-GAL4, FT62/nos-vp16-GAL4 and FT63/nos-vp16-GAL4 respectively.
Ovaries from 10 females of Triple Rep-L flies recombined with nos-Gal4-VP16 fed 3, 1 or no amino acid were dissected in 100 μl 1× Passive lysis buffer and processed for luciferase assays as previously described^20.

CC1=CC1COC(=O)NCCCC[C@H](N)C(=O)O (stereo partly drawn) [amino acid 3, N^ε-[((2-methylcycloprop-2-en-1-yl)methoxy)carbonyl]-L-lysine]
yield of protein ([1]; SfGFP gene with amber codon at position 150, E. coli, PylRS/tRNACUA pair): 8 mg per litre of culture
efficiency of site-specific incorporation into sfGFP ([1]; amber stop codon at position 150, E. coli, compared with 1): more efficient than 1
dual luciferase signal compared with 1 [2]: larger
luciferase signal dependent on amino acid addition [2]: strong luciferase signal
